Data reported in US20080221129A1, “New compounds” (priority 2006, published 2008).

Molecular target: T1, stearoyl-CoA desaturase (SCD) (Rattus norvegicus, UniProt P07308)
T1 construct: 0.032 mg/ml rat liver microsomes (total protein content); from tissue
T1 sequence (P07308 1-358): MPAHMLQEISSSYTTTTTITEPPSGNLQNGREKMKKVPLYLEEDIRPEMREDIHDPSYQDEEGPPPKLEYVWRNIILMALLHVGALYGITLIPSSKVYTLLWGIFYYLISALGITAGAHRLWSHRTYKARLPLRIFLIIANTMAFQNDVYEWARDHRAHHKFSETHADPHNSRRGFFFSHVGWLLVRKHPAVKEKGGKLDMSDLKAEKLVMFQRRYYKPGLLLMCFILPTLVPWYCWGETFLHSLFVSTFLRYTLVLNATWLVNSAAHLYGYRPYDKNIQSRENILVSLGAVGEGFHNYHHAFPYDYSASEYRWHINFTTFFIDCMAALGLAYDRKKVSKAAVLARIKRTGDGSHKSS
Test: Tritium release screening assay for inhibition of stearoyl-CoA desaturase activity in rat liver microsomes
Type: biochemical, rat (Male Sprague-Dawley)
Conditions: [3H]-stearoyl-CoA, 20 min pre-incubation, 20 min reaction, 384- or 96-well format
From the text: Another measure of SCD activity was introduced by Talamo and Bloch in 1969 [Talamo & Bloch (1969) Anal. Biochem. 29, 300-304]. This method is based on the quantification of a second product of the desaturase reaction, i.e. the water molecule that is released in the desaturase reaction. The quantification is based on the use of a long chain acyl-CoA substrate, e.g. stearoyl-CoA, that is specifically labeled with tritium in positions 9 and 10 of the carbon chain such that the released water is also tritiated ([^3H]-H2O). The remaining [^3H]-stearoyl-CoA as well as the product [^3H]-oleyl-CoA must then be separated from the solution before the tritiated water content can be measured by means of liquid scintillation. Talamo and Bloch acid precipitated the long chain acyl-CoAs followed by filtration to achieve this separation, but this separation can also be achieved by means of centrifugation instead of filtration [Johnson & Guhr (1971) Lipids 6, 78-84]. An alternative procedure that involves precipitation by ethanol and activated charcoal followed by centrifugation has also been described [Shanklin and Somerville (1991) Proc. Natl. Acad. Sci. USA 88, 2510-2514]. Based on these studies it is clear that near perfect separation is required for optimal assay performance. When applying this assay it is important to recognize that the apparent desaturation rate is impacted by isotope effects as described by Johnson and Gurr in 1971 [Johnson & Guhr (1971) Lipids 6, 78-84]. Thus whereas the assay serves as an excellent measure of relative SCD activity it must be calibrated using other methods when absolute measures of enzyme activity are needed. The pros and cons of this assay have also been summarized in the literature [Gurr & Robinson (1972) Anal. Biochem. 47, 146-156]. An abundant source of stearoyl-CoA desaturase activity can be found in microsomal preparations from the liver of rats that have been subjected to a fasting-refeeding procedure on a low fat/high carbohydrate diet [reviewed in Ntambi (1999) J. Lipid Res. 40, 1549-1558]. However, microsomal preparations are not a pure source of SCD activity and this means that the added stearoyl-CoA substrate is subject also to other enzymatic processes. It is therefore essential to include reagents that allow regeneration of the stearoyl-CoA substrate as described by Bertram and Erwin [Bertram & Erwin (1981) J. Protozool. 8, 127-131].
The tritium release assay for the measurement of SCD activity is thus well documented in the literature. Descriptions on how these finding have been used to produce standard screening assays in 96-well plates are also available [Brownlie, Hayden, Attie, Ntambi, Gray-Keller, & Miyazaki (2001) WO 01/62954; Wu, Gallipoli, Gallagher, & Gardell (2004) WO 2004/04776]. […]

| SMILES | IC50 |
| --- | --- |
| Cc1nc2c(C(=O)NCC3CCCO3)cnn2c(C)c1Cc1cccc(Br)c1 (stereo not shown) [6-(3-bromobenzyl)-5,7-dimethyl-N-(tetrahydrofuran-2-ylmethyl)pyrazolo[1,5-a]pyrimidine-3-carboxamide] | 140 ± 67 nM |
| COCCNC(=O)c1cnn2c(C)c(Cc3ccccc3)c(C)nc12 [Example 1, 6-benzyl-N-(2-methoxyethyl)-5,7-dimethylpyrazolo[1,5-a]pyrimidine-3-carboxamide] | 1000 ± 400 nM |
| COc1cccc(Cc2c(C)nc3c(C(=O)NCCNC(C)=O)cnn3c2C)c1 [Example 8, N-[2-(Acetylamino)ethyl]-6-(3-methoxybenzyl)-5,7-dimethylpyrazolo-[1,5-a]pyrimidine-3-carboxamide] | 830 ± 240 nM |
| CCOCCCNC(=O)c1cnn2c(C)c(Cc3cccc(F)c3)c(C)nc12 [Example 24, N-(3-ethoxypropyl)-6-(3-fluorobenzyl)-5,7-dimethylpyrazolo[1,5-a]-pyrimidine-3-carboxamide] | 700 ± 110 nM |
